Data: patent publication US12479847B2 (DANA-FARBER CANCER INSTITUTE, INC., priority 2019, dated 2025)
Where two headings read alike, the source gives them in different places.

Experiments:
Assay in all cases: KINOMEscan (ScanMAX) kinase profiling
Type in all cases: binding
panel of 468 kinases [1] = target: T1, panel of 468 kinases (Homo sapiens, UniProt O75747); settings: PIK3C2G; 1 μM; read-out: % control
T1 construct: purchased KINOMEscan (ScanMAX) service
T1 sequence (O75747 1-1486): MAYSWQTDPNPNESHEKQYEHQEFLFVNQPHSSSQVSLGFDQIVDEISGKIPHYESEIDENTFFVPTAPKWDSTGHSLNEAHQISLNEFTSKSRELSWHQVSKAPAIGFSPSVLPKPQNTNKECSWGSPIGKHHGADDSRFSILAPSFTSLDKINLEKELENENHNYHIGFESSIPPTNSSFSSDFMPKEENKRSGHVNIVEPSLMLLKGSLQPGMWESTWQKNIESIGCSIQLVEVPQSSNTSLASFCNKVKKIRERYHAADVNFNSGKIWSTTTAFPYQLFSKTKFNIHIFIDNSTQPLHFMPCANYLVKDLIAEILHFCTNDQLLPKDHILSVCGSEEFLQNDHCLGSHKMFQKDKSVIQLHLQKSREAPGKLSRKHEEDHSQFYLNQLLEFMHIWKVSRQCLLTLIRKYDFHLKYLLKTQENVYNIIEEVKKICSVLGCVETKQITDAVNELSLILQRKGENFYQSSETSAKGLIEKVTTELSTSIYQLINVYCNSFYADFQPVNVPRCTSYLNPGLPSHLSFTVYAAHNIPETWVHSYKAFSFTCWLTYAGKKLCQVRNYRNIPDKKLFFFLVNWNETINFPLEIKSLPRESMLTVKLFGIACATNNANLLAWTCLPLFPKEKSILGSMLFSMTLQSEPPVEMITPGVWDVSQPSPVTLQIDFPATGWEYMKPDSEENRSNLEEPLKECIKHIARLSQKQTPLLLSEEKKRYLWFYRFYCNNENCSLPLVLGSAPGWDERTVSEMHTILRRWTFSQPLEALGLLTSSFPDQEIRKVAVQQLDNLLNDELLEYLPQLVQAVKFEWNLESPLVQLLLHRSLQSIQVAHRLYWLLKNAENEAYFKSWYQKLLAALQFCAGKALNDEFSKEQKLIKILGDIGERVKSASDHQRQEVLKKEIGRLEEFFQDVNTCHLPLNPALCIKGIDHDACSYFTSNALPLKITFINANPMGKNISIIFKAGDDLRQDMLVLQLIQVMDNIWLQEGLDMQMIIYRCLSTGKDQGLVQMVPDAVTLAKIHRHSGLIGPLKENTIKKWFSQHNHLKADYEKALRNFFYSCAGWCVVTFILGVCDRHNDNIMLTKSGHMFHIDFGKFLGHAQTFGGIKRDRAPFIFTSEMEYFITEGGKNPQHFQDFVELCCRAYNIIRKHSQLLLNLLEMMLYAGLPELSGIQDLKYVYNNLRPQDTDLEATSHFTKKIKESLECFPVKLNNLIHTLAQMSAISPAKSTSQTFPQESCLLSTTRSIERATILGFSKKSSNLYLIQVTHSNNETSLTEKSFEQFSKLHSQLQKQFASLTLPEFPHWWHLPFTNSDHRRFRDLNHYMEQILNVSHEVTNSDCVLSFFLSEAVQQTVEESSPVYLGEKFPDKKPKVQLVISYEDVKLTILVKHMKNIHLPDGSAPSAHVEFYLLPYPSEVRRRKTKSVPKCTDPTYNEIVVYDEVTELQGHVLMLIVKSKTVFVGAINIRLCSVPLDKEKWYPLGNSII

panel of 468 kinases [2] = target: T2, panel of 468 kinases (Homo sapiens, UniProt P00519, F317I); settings: 1 μM, read-out: % control
T2 construct: purchased KINOMEscan (ScanMAX) service

panel of 468 kinases [3] = target: T3, panel of 468 kinases (Homo sapiens, UniProt P00519, M351T); settings: ABL1(M351T)-phosphorylated; 1 μM; read-out: % control
T3 construct: purchased KINOMEscan (ScanMAX) service

panel of 468 kinases [4] = target: T4, panel of 468 kinases (Homo sapiens, UniProt P54756); settings: EPHA5; 1 μM; read-out: % control
T4 construct: purchased KINOMEscan (ScanMAX) service

panel of 468 kinases [5] = target: T5, panel of 468 kinases (Homo sapiens, UniProt Q02750); settings: MEK1; 1 μM; read-out: % control
T5 construct: purchased KINOMEscan (ScanMAX) service

panel of 468 kinases [6] = target: T6, panel of 468 kinases (Homo sapiens, UniProt Q05397); settings: FAK; 1 μM; read-out: % control
T6 construct: purchased KINOMEscan (ScanMAX) service

panel of 468 kinases [7] = target: T7, panel of 468 kinases (Homo sapiens, UniProt Q14004); settings: CDC2L5; 1 μM; read-out: % control
T7 construct: purchased KINOMEscan (ScanMAX) service

panel of 468 kinases [8] = target: T8, panel of 468 kinases (Homo sapiens, UniProt Q8TBX8); settings: PIP5K2C; 1 μM; read-out: % control
T8 construct: purchased KINOMEscan (ScanMAX) service
T8 sequence (Q8TBX8 1-421): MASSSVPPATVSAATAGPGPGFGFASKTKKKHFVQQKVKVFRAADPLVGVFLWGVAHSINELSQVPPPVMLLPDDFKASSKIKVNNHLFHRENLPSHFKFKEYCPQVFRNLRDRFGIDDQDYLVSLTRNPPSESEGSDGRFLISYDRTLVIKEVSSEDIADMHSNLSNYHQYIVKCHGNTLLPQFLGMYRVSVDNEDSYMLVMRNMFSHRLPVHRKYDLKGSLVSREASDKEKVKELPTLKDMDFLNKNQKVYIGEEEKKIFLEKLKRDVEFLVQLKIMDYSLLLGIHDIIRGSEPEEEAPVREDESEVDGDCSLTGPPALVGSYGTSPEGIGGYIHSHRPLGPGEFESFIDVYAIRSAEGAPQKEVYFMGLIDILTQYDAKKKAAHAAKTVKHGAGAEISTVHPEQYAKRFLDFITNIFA

panel of 468 kinases [9] = target: T9, panel of 468 kinases (Homo sapiens, UniProt Q9P0L2); settings: MARK1; 1 μM; read-out: % control
T9 construct: purchased KINOMEscan (ScanMAX) service

panel of 468 kinases [10] = target: T10, panel of 468 kinases (Homo sapiens, UniProt Q9Y5S2); settings: MRCKB; 1 μM; read-out: % control
T10 construct: purchased KINOMEscan (ScanMAX) service
T10 sequence (Q9Y5S2 whole entry): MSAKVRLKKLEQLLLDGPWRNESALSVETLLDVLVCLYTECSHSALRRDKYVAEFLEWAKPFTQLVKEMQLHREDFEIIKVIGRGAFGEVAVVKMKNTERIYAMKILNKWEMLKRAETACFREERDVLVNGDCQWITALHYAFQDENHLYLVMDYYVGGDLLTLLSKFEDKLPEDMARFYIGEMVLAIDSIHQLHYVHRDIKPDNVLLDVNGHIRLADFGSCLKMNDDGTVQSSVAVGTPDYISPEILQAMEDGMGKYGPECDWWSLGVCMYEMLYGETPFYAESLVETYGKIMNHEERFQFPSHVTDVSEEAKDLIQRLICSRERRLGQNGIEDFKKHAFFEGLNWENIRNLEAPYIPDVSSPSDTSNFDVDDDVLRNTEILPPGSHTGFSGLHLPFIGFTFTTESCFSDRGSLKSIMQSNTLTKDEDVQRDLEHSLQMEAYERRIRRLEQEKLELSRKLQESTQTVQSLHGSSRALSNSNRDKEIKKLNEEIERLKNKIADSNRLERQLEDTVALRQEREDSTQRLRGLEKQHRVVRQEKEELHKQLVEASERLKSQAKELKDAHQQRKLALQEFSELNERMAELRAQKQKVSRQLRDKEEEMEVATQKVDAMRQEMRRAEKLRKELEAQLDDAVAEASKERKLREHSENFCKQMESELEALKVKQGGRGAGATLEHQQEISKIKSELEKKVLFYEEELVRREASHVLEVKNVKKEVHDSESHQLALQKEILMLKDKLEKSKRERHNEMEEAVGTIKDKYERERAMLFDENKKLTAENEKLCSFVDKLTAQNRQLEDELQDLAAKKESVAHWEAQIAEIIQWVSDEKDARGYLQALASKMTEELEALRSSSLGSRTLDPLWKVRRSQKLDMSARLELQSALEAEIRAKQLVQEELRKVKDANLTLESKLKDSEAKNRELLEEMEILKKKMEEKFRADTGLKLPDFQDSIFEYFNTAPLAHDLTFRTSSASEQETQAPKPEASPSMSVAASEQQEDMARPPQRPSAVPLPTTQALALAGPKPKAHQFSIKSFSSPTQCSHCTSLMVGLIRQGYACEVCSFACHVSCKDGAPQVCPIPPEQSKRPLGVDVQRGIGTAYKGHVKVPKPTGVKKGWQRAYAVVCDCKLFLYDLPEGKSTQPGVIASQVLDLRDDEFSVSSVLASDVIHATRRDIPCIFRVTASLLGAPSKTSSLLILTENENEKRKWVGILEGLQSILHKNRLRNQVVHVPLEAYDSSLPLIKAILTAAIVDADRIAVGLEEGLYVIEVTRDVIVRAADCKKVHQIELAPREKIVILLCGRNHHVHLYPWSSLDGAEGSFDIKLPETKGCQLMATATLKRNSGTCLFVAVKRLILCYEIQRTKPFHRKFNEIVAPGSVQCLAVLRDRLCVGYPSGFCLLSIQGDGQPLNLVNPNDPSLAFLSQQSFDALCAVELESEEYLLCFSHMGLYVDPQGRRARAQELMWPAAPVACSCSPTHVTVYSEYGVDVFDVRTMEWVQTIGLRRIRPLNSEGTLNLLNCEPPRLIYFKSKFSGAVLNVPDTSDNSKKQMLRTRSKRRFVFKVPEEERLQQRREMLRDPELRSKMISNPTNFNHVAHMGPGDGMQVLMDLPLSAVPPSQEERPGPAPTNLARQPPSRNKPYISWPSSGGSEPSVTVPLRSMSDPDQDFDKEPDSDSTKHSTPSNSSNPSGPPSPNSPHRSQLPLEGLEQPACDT

T6 sequence (Q05397 whole entry): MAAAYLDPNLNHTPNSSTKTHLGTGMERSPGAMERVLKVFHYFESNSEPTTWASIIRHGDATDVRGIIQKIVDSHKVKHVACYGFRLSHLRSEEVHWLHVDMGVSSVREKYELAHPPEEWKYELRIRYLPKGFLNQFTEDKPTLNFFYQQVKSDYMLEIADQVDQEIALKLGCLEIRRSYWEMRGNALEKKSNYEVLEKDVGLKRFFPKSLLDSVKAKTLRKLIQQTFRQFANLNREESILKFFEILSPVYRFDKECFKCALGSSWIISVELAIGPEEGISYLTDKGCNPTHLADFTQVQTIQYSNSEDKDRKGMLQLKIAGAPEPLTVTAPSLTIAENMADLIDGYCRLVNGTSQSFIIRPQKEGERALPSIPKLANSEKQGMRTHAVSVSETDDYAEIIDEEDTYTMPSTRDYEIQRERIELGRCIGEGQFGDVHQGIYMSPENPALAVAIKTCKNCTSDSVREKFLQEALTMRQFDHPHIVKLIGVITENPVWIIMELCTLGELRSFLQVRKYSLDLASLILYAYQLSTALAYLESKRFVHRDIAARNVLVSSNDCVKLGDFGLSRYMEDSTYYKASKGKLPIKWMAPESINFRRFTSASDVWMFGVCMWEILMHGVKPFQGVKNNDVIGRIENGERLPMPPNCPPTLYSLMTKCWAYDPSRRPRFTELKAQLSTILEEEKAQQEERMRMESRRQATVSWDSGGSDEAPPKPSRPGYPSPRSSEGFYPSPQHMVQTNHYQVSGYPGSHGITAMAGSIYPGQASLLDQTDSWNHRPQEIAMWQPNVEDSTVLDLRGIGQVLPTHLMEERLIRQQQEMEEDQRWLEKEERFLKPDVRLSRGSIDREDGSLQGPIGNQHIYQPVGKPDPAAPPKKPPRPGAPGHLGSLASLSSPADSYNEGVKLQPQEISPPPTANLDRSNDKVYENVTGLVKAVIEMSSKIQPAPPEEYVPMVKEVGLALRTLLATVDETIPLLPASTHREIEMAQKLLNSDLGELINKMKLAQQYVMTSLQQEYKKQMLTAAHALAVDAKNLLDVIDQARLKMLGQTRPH
T5 sequence (Q02750 whole entry): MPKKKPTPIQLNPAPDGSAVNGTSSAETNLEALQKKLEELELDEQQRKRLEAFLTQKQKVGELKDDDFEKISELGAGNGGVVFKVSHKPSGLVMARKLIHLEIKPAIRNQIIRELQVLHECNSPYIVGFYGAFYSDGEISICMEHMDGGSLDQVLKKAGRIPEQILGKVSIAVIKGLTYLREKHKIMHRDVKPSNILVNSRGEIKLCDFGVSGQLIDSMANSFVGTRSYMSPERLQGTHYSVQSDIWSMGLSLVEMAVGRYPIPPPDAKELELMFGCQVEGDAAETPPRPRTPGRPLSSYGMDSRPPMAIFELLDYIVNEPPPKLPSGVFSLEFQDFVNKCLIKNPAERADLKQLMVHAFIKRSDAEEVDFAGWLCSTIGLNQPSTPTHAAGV
T7 sequence (Q14004 whole entry): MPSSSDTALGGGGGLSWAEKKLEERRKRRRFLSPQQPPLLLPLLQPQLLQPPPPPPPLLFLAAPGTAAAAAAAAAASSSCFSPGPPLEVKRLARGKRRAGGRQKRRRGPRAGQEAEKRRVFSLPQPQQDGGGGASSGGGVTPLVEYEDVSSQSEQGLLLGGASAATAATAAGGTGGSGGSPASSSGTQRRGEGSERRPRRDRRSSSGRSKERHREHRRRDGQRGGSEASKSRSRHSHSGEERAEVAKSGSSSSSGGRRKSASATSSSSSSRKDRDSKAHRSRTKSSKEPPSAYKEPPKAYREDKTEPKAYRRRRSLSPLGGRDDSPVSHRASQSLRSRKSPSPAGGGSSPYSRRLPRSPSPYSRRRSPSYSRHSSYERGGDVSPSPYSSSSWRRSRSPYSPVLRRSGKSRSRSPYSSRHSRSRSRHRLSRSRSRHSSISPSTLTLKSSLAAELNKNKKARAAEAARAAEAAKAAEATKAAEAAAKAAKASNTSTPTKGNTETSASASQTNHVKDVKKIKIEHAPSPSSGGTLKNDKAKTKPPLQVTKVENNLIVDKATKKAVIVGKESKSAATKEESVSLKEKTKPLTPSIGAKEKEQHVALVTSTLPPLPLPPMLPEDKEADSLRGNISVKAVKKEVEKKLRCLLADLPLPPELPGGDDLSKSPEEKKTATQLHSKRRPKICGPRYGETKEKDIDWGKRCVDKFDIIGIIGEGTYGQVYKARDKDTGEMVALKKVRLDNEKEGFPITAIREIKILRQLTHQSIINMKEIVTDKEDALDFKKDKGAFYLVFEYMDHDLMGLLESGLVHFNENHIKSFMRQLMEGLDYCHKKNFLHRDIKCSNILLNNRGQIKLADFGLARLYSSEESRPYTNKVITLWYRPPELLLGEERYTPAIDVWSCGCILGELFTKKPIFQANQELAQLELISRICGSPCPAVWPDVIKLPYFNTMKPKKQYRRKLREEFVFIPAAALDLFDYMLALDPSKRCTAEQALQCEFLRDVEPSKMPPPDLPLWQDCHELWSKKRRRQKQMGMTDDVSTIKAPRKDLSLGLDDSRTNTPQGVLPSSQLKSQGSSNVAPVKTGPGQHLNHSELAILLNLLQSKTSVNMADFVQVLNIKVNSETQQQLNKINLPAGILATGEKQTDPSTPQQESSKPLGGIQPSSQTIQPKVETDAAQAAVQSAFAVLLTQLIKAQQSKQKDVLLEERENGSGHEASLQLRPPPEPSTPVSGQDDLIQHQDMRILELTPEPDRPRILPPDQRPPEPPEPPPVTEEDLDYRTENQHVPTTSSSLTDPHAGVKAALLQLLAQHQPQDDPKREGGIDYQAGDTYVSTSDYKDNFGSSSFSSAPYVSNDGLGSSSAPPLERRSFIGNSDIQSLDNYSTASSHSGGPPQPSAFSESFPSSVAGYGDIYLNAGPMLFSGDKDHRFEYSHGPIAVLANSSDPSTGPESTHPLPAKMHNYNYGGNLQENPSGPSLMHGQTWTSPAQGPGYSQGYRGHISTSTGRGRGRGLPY

| Compound | remaining binding at 1 µM (panel of 468 kinases [1]) | remaining binding at 1 µM (panel of 468 kinases [2]; ABL1(F317I)-nonphosphorylated) | remaining binding at 1 µM (panel of 468 kinases [2]; ABL1(F317I)-phosphorylated) | remaining binding at 1 µM (panel of 468 kinases [3]) | remaining binding at 1 µM (panel of 468 kinases [4]) | remaining binding at 1 µM (panel of 468 kinases [5]) | remaining binding at 1 µM (panel of 468 kinases [6]) | remaining binding at 1 µM (panel of 468 kinases [7]) | remaining binding at 1 µM (panel of 468 kinases [8]) | remaining binding at 1 µM (panel of 468 kinases [9]) | remaining binding at 1 µM (panel of 468 kinases [10]) |
| --- | --- | --- | --- | --- | --- | --- | --- | --- | --- | --- | --- |
| CNc1nc(Nc2ccc(S(=O)(=O)N3CCC(N4CCOCC4)CC3)cc2OC)nc2[nH]cc(Cl)c12 [Compound 12, 5-chloro-N2-(2-methoxy-4-((4-morpholinopiperidin-1-yl)sulfonyl)phenyl)-N4-methyl-7H-pyrrolo[2,3-d]pyrimidine-2,4-diamine] | 100% | 100% | 54% | 64% | 100% | 99% | 19% | 54% | 28% | 100% | 100% |
| CNc1nc(Nc2ccc(C(=O)N3CCC(N4CCOCC4)CC3)c3c2OCO3)nc2[nH]cc(Cl)c12 [Compound 75, (7-((5-chloro-4-(methylamino)-7H-pyrrolo[2,3-d]pyrimidin-2-yl)amino)benzo[d][1,3]dioxol-4-yl)(4-morpholinopiperidin-1-yl)methanone] | 100% | 100% | 83% | 59% | 100% | 98% | 39% | 57% | 0% | 100% | 100% |
| CNc1nc(Nc2ccc(P3(=O)CCN(C4CCOCC4)CC3)cc2OC)nc2[nH]cc(Cl)c12 [Compound 77, 4-(4-((5-chloro-4-(methylamino)-7H-pyrrolo[2,3-d]pyrimidin-2-yl)amino)-3-methoxyphenyl)-1-(tetrahydro-2H-pyran-4-yl)-1,4-azaphosphinane 4-oxide] | 93% | 100% | 51% | 70% | 100% | 96% | 33% | 55% | 39% | 96% | 100% |
